Target: T1, histamine H4 receptor (Homo sapiens, UniProt Q9H3N8)
T1 construct: expressed in transfected cells; host or cells: HEK293SFM cells (membrane preparation)
Assay: Inhibition of histamine H4 receptor (Table A1; H4 membrane binding assay)
Details: for IC50: histamine H4 receptor, "> a" = exceeds experiment limit
Experimental: Recombinant HEK293SFM cells expressing human H1, H2, H3, H4 or mouse H4 were harvested (Packard Filtermate Harvester) in ice-cold Tris-HCl, (50 mM, pH 7.5, Sigma) with protease inhibitors (Roche) and homogenized with a Polytron homogenizer. The homogenate was centrifuged for 5 minutes at 1000 g to remove nuclei and unbroken cells. The supernatant was centrifuged at 50000 g for 30 minutes, and the resulting pellet was re-suspended in ice-cold Tris-HCl (50 mM, pH 7.5). […] Nonspecific binding was determined by inclusion of 1000× unlabeled ligands. The bound radioactivity was separated by filtration through polyethyleneimine-treated GF/B filters (Perkin Elmer). The filters were washed eight times with ice-cold Tris-HCl (50 mM, pH 7.5), and radioactivity retained on the filters was measured by liquid scintillation counting. The binding data were evaluated with Prism. […]

IC50	inhibition at 1 µM	SMILES
255 nM	–	CC1Cc2ccc(-c3cnn(C)c3)cc2CN1c1cc(N2CC[C@@H](N)C2)nc(N)n1 (stereo partly drawn) [Example 118, 4-[(3R)-3-Aminopyrrolidin-1-yl]-6-[3-methyl-7-(1-methyl-1H-pyrazol-4-yl)-3,4-dihydroisoquinolin-2(1H)-yl]pyrimidin-2-amine]
64 nM	–	CC1Cc2ccc(C3CCN(C(=O)CC4CCCC4)CC3)cc2CN1c1cc(N2CCN(C)CC2)nc(N)n1 (stereo not shown) [Example 138, 4-[7-[1-(Cyclopentylacetyl)piperidin-4-yl]-3-methyl-3,4-dihydroisoquinolin-2(1H)-yl]-6-(4-methylpiperazin-1-yl)pyrimidin-2-amine]
8.7 nM	–	CC1Cc2ccc(-c3ccn(Cc4cccnc4)n3)cc2CN1c1cc(N2CCN(C)CC2)nc(N)n1 (single isomer, unassigned) [Example 156, 4-(4-Methylpiperazin-1-yl)-6-[3-methyl-7-[1-(pyridin-3-ylmethyl)-1H-pyrazol-3-yl]-3,4-dihydroisoquinolin-2(1H)-yl]pyrimidin-2-amine]
43 nM	–	CCOc1nc(-c2ccc3c(c2)CN(c2cc(N4CCN(C)CC4)nc(N)n2)C(C)C3)cs1 (stereo not shown) [Example 117, 4-[7-(2-Ethoxy-1,3-thiazol-4-yl)-3-methyl-3,4-dihydroisoquinolin-2(1H)-yl]-6-(4-methylpiperazin-1-yl)pyrimidin-2-amine]
200 nM	–	CN1CCN(c2cc(N3CCc4ccc(-c5nc(C(=O)N6CCCC6)cs5)cc4C3)nc(N)n2)CC1 [Example 48, 4-(4-Methylpiperazin-1-yl)-6-[7-[4-(pyrrolidin-1-ylcarbonyl)-1,3-thiazol-2-yl]-3,4-dihydroisoquinolin-2(1H)-yl]pyrimidin-2-amine]
80 nM	–	CC(C)NC(=O)N1CCC(c2ccc3c(c2)CN(c2cc(N4CCN(C)CC4)nc(N)n2)C(C)C3)CC1 (stereo not shown) [Example 140, 4-{2-[2-Amino-6-(4-methylpiperazin-1-yl)pyrimidin-4-yl]-3-methyl-1,2,3,4-tetrahydroisoquinolin-7-yl}-N-isopropylpiperidine-1-carboxamide]
579 nM	–	CN1CCN(c2cc(N3CCc4ccc(N5CCC(O)(c6ccccc6)CC5)cc4C3)nc(N)n2)CC1 [Example 37, 1-{2-[2-Amino-6-(4-methylpiperazin-1-yl)pyrimidin-4-yl]-1,2,3,4-tetrahydroisoquinolin-7-yl}-4-phenylpiperidin-4-ol]
75 nM	–	CNC(=O)c1ccc(-c2ccc3c(c2)CN(c2cc(N4CCN(C)CC4)nc(N)n2)C(CO)C3)cn1 (single isomer, unassigned) [Example 81A, 5-[2-[2-amino-6-(4-methylpiperazin-1-yl)pyrimidin-4-yl]-3-(hydroxymethyl)-1,2,3,4-tetrahydroisoquinolin-7-yl]-N-methylpyridine-2-carboxamide]
–	67%	CC1Cc2ccc(-c3cc(C(=O)N(C)C)n(C)c3)cc2CN1c1cc(N2CCN(C)CC2)nc(N)n1 (single isomer, unassigned) [Example 89B, 4-{2-[2-Amino-6-(4-methylpiperazin-1-yl)pyrimidin-4-yl]-3-methyl-1,2,3,4-tetrahydroisoquinolin-7-yl}-N,1N,1-trimethyl-1H-pyrrole-2-carboxamide]
670 nM	–	CN1CCN(c2cc(N3CCc4ccc(C(=O)N(C)C)cc4C3)nc(N)n2)CC1 [Example 27, 2-[2-Amino-6-(4-methylpiperazin-1-yl)pyrimidin-4-yl]-N,N-dimethyl-1,2,3,4-tetrahydroisoquinoline-7-carboxamide]
42.1 nM	–	CNC(=O)N1CCC(c2ccc3c(c2)CN(c2cc(N4CCN(C)CC4)nc(N)n2)C(C)C3)CC1 (stereo not shown) [Example 151, 4-{2-[2-Amino-6-(4-methylpiperazin-1-yl)pyrimidin-4-yl]-3-methyl-1,2,3,4-tetrahydroisoquinolin-7-yl}-N-methylpiperidine-1-carboxamide]
489 nM	–	CN1CCN(c2cc(N3CCc4ccc(-c5cnn(C6CCN(C(=O)OC(C)(C)C)CC6)c5)cc4C3)nc(N)n2)CC1 [Example 12, tert-Butyl 4-(4-{2-[2-amino-6-(4-methylpiperazin-1-yl)pyrimidin-4-yl]-1,2,3,4-tetrahydroisoquinolin-7-yl}-1H-pyrazol-1-yl)piperidine-1-carboxylate]
–	66%	CC1Cc2ccc(-c3ccn(CC#N)n3)cc2CN1c1cc(N2CCN(C)CC2)nc(N)n1 (single isomer, unassigned) [Example 82B, (3-{2-[2-Amino-6-(4-methylpiperazin-1-yl)pyrimidin-4-yl]-3-methyl-1,2,3,4-tetrahydroisoquinolin-7-yl}-1H-pyrazol-1-yl)acetonitrile]
–	61%	CC1Cc2ccc(-c3ccn(CCC#N)n3)cc2CN1c1cc(N2CCN(C)CC2)nc(N)n1 (single isomer, unassigned) [Example 83B, 3-(3-{2-[2-Amino-6-(4-methylpiperazin-1-yl)pyrimidin-4-yl]-3-methyl-1,2,3,4-tetrahydroisoquinolin-7-yl}-1,1-pyrazol-1-yl)propanenitrile]
244 nM	–	CN1CCN(c2cc(N3CCc4ccc(C(=O)N5Cc6ccccc6C5)cc4C3)nc(N)n2)CC1 [Example 26, 4-[7-(1,3-Dihydro-2H-isoindol-2-ylcarbonyl)-3,4-dihydroisoquinolin-2(1H)-yl]-6-(4-methylpiperazin-1-yl)pyrimidin-2-amine]
–	79%	CC1Cc2ccc(-c3cnn(C4CCOCC4)c3)cc2CN1c1cc(N2CCN(C)CC2)nc(N)n1 (stereo not shown) [Example 95B, 4-(4-Methylpiperazin-1-yl)-6-[3-methyl-7-[1-(tetrahydro-2H-pyran-4-yl)-1H-pyrazol-4-yl]-3,4-dihydroisoquinolin-2(1H)-yl]pyrimidin-2-amine]
40 nM	–	CCn1ccc(-c2ccc3c(c2)CN(c2cc(N4CCN(C)CC4)nc(N)n2)C(C)C3)n1 (single isomer, unassigned) [Example 86A, 4-[7-(1-Ethyl-1H-pyrazol-3-yl)-3-methyl-3,4-dihydroisoquinolin-2(1H)-yl]-6-(4-methylpiperazin-1-yl)pyrimidin-2-amine]
754 nM	–	CN1CCN(c2cc(N3CCc4ccc(C(=O)NC5CCCC5)cc4C3)nc(N)n2)CC1 [Example 28, 2-[2-Amino-6-(4-methylpiperazin-1-yl)pyrimidin-4-yl]-N-cyclopentyl-1,2,3,4-tetrahydroisoquinoline-7-carboxamide]
121 nM	–	CN[C@@H]1CCN(c2cc(N3Cc4cc(-c5cnn(C)c5)ccc4CC3C)nc(N)n2)C1 (stereo partly drawn) [Example 124, 4-[(3R)-3-(Methylamino)pyrrolidin-1-yl]-6-[3-methyl-7-(1-methyl-1H-pyrazol-4-yl)-3,4-dihydroisoquinolin-2(1H)-yl]pyrimidin-2-amine]
38 nM	–	CNC(=O)c1ccc(-c2ccc3c(c2)CN(c2cc(N4CCN(C)CC4)nc(N)n2)C(C)C3)cn1 (single isomer, unassigned) [Example 49B, 5-{2-[2-amino-6-(4-methylpiperazin-1-yl)pyrimidin-4-yl]-3-methyl-1,2,3,4-tetrahydroisoquinolin-7-yl}-N-methylpyridine-2-carboxamide]
25 nM	–	CC1Cc2ccc(-c3cc(C(=O)N4CCC4)n(C)c3)cc2CN1c1cc(N2CCN(C)CC2)nc(N)n1 (single isomer, unassigned) [Example 92A, 4-[7-[5-(azetidin-1-ylcarbonyl)-1-methyl-1H-pyrrol-3-yl]-3-methyl-3,4-dihydroisoquinolin-2(1H)-yl]-6-(4-methylpiperazin-1-yl)pyrimidin-2-amine]
393 nM	–	CN1CCN(c2cc(N3CCc4ccc(N5CCC(C#N)CC5)cc4C3)nc(N)n2)CC1 [Example 36, 1-{2-[2-Amino-6-(4-methylpiperazin-1-yl)pyrimidin-4-yl]-1,2,3,4-tetrahydroisoquinolin-7-yl}piperidine-4-carbonitrile]
40 nM	–	CC1Cc2ccc(-c3cnn(C)c3)cc2CN1c1cc(N2CCC(N)CC2)nc(N)n1 (stereo not shown) [Example 120, 4-(4-Aminopiperidin-1-yl)-6-[3-methyl-7-(1-methyl-1H-pyrazol-4-yl)-3,4-dihydroisoquinolin-2 (1H)-yl]pyrimidin-2-amine]
40 nM	–	COCCn1cc(-c2ccc3c(c2)CN(c2cc(N4CCN(C)CC4)nc(N)n2)C(C)C3)cn1 (single isomer, unassigned) [Example 112, 4-[7-[1-(2-Methoxyethyl)-1H-pyrazol-4-yl]-3-methyl-3,4-dihydroisoquinolin-2(1H)-yl]-6-(4-methylpiperazin-1-yl)pyrimidin-2-amine]
45 nM	–	CC1Cc2ccc(-c3cnn(CCN4CCOCC4)c3)cc2CN1c1cc(N2CCN(C)CC2)nc(N)n1 (single isomer, unassigned) [Example 104, 4-[3-Methyl-7-[1-(2-morpholin-4-ylethyl)-1H-pyrazol-4-yl]-3,4-dihydroisoquinolin-2(1H)-yl]-6-(4-methylpiperazin-1-yl)pyrimidin-2-amine]
24 nM	–	CC1Cc2ccc(-c3cnn(C(C)CC#N)c3)cc2CN1c1cc(N2CCN(C)CC2)nc(N)n1 (single isomer, unassigned) [Example 103, 3-(4-{2-[2-Amino-6-(4-methylpiperazin-1-yl)pyrimidin-4-yl]-3-methyl-1,2,3,4-tetrahydroisoquinolin-7-yl}-1H-pyrazol-1-yl)butanenitrile]
20 nM	–	Cc1nc(-c2ccc3c(c2)CN(c2cc(N4CCN(C)CC4)nc(N)n2)C(C)C3)cs1 (stereo not shown) [Example 116, 4-[3-Methyl-7-(2-methyl-1,3-thiazol-4-yl)-3,4-dihydroisoquinolin-2(1H)-yl]-6-(4-methylpiperazin-1-yl)pyrimidin-2-amine]
64 nM	–	CC1Cc2ccc(-c3ccnc(C(=O)N4CC[C@H](F)C4)c3)cc2CN1c1cc(N2CCN(C)CC2)nc(N)n1 (single isomer, unassigned) [Example 66A]
